Consider one molecule from article PMC6496074, “The Evolution of Azole Resistance in Candida albicans Sterol 14α-Demethylase (CYP51) through Incremental Amino Acid Substitutions” (Antimicrobial Agents and Chemotherapy, 2019).

Common to all, as to assay: CYP51 reconstitution assay
Format in all cases: biochemical

One experiment deals with T1, CaCYP51 R467K (Candida albicans, UniProt P10613, R467K).
T1 construct: made in house; host or cells: E. coli DH5α (pCWori+)
To be noted: 0.25 h, 4 μM triazole, % of activity without triazole, read-out: Residual CYP51 activity (%) ± SD. The method, then: (§1) Azole antifungal agents were added in 2.5 μl dimethyl sulfoxide, followed by 10 min of incubation at 37°C prior to assay initiation with 4 mM β-NADPH-Na4. The samples were then shaken for 15 min at 37°C. Sterol metabolites were recovered by extraction with ethyl acetate, followed by derivatization with 0.1 ml N,O-bis(trimethylsilyl)trifluoroacetamide (BSTFA)–trimethylchlorosilane (TMCS) (99:1) and 0.3 ml anhydrous pyridine (2 h at 80°C), prior to analysis by gas chromatography-mass spectrometry (GC-MS) ([52]). IC50 determinations were performed in duplicate.

The next experiment deals with T2, CaCYP51 V456I (Candida albicans, UniProt P10613, V456I).
T2 construct: made in house; host or cells: E. coli DH5α (pCWori+)
Particulars: 0.25 h, 4 μM triazole, % of activity without triazole, read-out: Residual CYP51 activity (%) ± SD. As for the experimental part: as §1

For a further experiment, the target named is T3, CaCYP51 D278N (Candida albicans, UniProt P10613, D278N).
T3 construct: made in house; host or cells: E. coli DH5α (pCWori+)
Particulars: 0.25 h, 4 μM triazole, % of activity without triazole, read-out: Residual CYP51 activity (%) ± SD. The method, then:
as §1

The target of another experiment is T4, CaCYP51 G307S+G450E (Candida albicans, UniProt P10613, G307S/G450E).
T4 construct: made in house; host or cells: E. coli DH5α (pCWori+)
To be noted: 0.25 h, 4 μM triazole, % of activity without triazole, read-out: Residual CYP51 activity (%) ± SD. As for the experimental part:
as §1

The target of the next experiment is T5, CaCYP51 Wild type (Candida albicans, UniProt P10613).
T5 construct: made in house; host or cells: E. coli DH5α (pCWori+)
Particulars: 0.25 h; Wild type; 4 μM triazole; % of activity without triazole; read-out: Residual CYP51 activity (%) ± SD. The method, then: as §1

Another experiment concerns the target T6, CaCYP51 V488I (Candida albicans, UniProt P10613, V488I).
T6 construct: made in house; host or cells: E. coli DH5α (pCWori+)
To be noted: 0.25 h, 4 μM triazole, % of activity without triazole, read-out: Residual CYP51 activity (%) ± SD. The method, then: as §1

In another experiment the target is T7, CaCYP51 D278N+G464S (Candida albicans, UniProt P10613, D278N/G464S).
T7 construct: made in house; host or cells: E. coli DH5α (pCWori+)
To be noted: 0.25 h, 4 μM triazole, % of activity without triazole, read-out: Residual CYP51 activity (%) ± SD. The method, then: as §1

Another experiment deals with T8, CaCYP51 S279F (Candida albicans, UniProt P10613, S279F).
T8 construct: made in house; host or cells: E. coli DH5α (pCWori+)
To be noted: 0.25 h, 4 μM triazole, % of activity without triazole, read-out: Residual CYP51 activity (%) ± SD. The method, then:
as §1

The next experiment deals with T9, CaCYP51 F449Y (Candida albicans, UniProt P10613, F449Y).
T9 construct: made in house; host or cells: E. coli DH5α (pCWori+)
To be noted: 0.25 h, 4 μM triazole, % of activity without triazole, read-out: Residual CYP51 activity (%) ± SD. The method, then:
as §1

In another experiment the target is T10, CaCYP51 I471T (Candida albicans, UniProt P10613, I471T).
T10 construct: made in house; host or cells: E. coli DH5α (pCWori+)
To be noted: 0.25 h, 4 μM triazole, % of activity without triazole, read-out: Residual CYP51 activity (%) ± SD. As for the experimental part:
as §1

The next experiment addresses T11, CaCYP51 F145L (Candida albicans, UniProt P10613, F145L).
T11 construct: made in house; host or cells: E. coli DH5α (pCWori+)
To be noted: 0.25 h, 4 μM triazole, % of activity without triazole, read-out: Residual CYP51 activity (%) ± SD. The method, then:
as §1

Another experiment addresses T12, CaCYP51 G307S (Candida albicans, UniProt P10613, G307S).
T12 construct: made in house; host or cells: E. coli DH5α (pCWori+)
To be noted: 0.25 h, 4 μM triazole, % of activity without triazole, read-out: Residual CYP51 activity (%) ± SD. The method, then:
as §1

The next experiment addresses T13, CaCYP51 G448E (Candida albicans, UniProt P10613, G448E).
T13 construct: made in house; host or cells: E. coli DH5α (pCWori+)
To be noted: 0.25 h, 4 μM triazole, % of activity without triazole, read-out: Residual CYP51 activity (%) ± SD. As for the experimental part:
as §1

The target of another experiment is T14, CaCYP51 G464S (Candida albicans, UniProt P10613, G464S).
T14 construct: made in house; host or cells: E. coli DH5α (pCWori+)
Particulars: 0.25 h, 4 μM triazole, % of activity without triazole, read-out: Residual CYP51 activity (%) ± SD. The method, then:
as §1

For another experiment, the target named is T15, CaCYP51 Y257H (Candida albicans, UniProt P10613, Y257H).
T15 construct: made in house; host or cells: E. coli DH5α (pCWori+)
To be noted: 0.25 h, 4 μM triazole, % of activity without triazole, read-out: Residual CYP51 activity (%) ± SD. As for the experimental part: as §1

The next experiment has as its target T16, CaCYP51 Y132H+K143R (Candida albicans, UniProt P10613, K143R/Y132H).
T16 construct: made in house; host or cells: E. coli DH5α (pCWori+)
Particulars: 0.25 h, 4 μM triazole, % of activity without triazole, read-out: Residual CYP51 activity (%) ± SD. As for the experimental part:
as §1

The target in another experiment is T17, CaCYP51 K143R (Candida albicans, UniProt P10613, K143R).
T17 construct: made in house; host or cells: E. coli DH5α (pCWori+)
Particulars: 0.25 h, 4 μM triazole, % of activity without triazole, read-out: Residual CYP51 activity (%) ± SD. As for the experimental part: as §1

For another experiment, the target named is T18, CaCYP51 G450E (Candida albicans, UniProt P10613, G450E).
T18 construct: made in house; host or cells: E. coli DH5α (pCWori+)
Particulars: 0.25 h, 4 μM triazole, % of activity without triazole, read-out: Residual CYP51 activity (%) ± SD. The method, then: as §1

A further experiment concerns the target T19, CaCYP51 Y118A (Candida albicans, UniProt P10613, Y118A).
T19 construct: made in house; host or cells: E. coli DH5α (pCWori+)
To be noted: 0.25 h, 4 μM triazole, % of activity without triazole, read-out: Residual CYP51 activity (%) ± SD. The method, then: as §1

The next experiment deals with T20, CaCYP51 Q474K (Candida albicans, UniProt P10613, Q474K).
T20 construct: made in house; host or cells: E. coli DH5α (pCWori+)
To be noted: 0.25 h, 4 μM triazole, % of activity without triazole, read-out: Residual CYP51 activity (%) ± SD. As for the experimental part: as §1

The target of the next experiment is T21, CaCYP51 S405F (Candida albicans, UniProt P10613, S405F).
T21 construct: made in house; host or cells: E. coli DH5α (pCWori+)
To be noted: 0.25 h, 4 μM triazole, % of activity without triazole, read-out: Residual CYP51 activity (%) ± SD. The method, then:
as §1

In another experiment the target is T22, CaCYP51 Y132F (Candida albicans, UniProt P10613, Y132F).
T22 construct: made in house; host or cells: E. coli DH5α (pCWori+)
Particulars: 0.25 h, 4 μM triazole, % of activity without triazole, read-out: Residual CYP51 activity (%) ± SD. As for the experimental part: as §1

In a further experiment the target is T23, CaCYP51 Y447H (Candida albicans, UniProt P10613, Y447H).
T23 construct: made in house; host or cells: E. coli DH5α (pCWori+)
Particulars: 0.25 h, 4 μM triazole, % of activity without triazole, read-out: Residual CYP51 activity (%) ± SD. As for the experimental part:
as §1

The next experiment deals with T24, CaCYP51 P230L (Candida albicans, UniProt P10613, P230L).
T24 construct: made in house; host or cells: E. coli DH5α (pCWori+)
To be noted: 0.25 h, 4 μM triazole, % of activity without triazole, read-out: Residual CYP51 activity (%) ± SD. The method, then: as §1

Structures are written as SMILES.

T18 sequence (P10613 whole entry, looked up, stated change not applied): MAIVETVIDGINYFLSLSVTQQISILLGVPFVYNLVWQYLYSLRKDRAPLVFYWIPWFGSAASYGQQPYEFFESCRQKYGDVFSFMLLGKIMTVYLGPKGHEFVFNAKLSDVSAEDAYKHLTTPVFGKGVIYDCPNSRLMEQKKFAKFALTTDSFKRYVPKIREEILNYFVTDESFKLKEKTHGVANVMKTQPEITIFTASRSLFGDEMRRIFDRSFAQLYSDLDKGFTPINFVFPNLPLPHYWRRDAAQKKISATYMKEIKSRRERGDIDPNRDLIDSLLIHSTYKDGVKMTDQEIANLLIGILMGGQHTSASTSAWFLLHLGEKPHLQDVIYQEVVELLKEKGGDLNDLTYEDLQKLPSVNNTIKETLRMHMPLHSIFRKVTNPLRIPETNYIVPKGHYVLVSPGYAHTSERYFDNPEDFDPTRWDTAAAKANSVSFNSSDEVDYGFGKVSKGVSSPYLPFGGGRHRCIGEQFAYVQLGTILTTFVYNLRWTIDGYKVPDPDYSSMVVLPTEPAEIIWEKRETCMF
T6 sequence (P10613 whole entry, looked up, stated change not applied): as above
T1 sequence (P10613 whole entry, looked up, stated change not applied): as above
T22 sequence (P10613 whole entry, looked up, stated change not applied): as above
T3 sequence (P10613 whole entry, looked up, stated change not applied): as above
T24 sequence (P10613 whole entry, looked up, stated change not applied): as above
T15 sequence (P10613 whole entry, looked up, stated change not applied): as above
T5 sequence (P10613 whole entry, looked up, natural form): as the sequence (P10613 whole entry, looked up, stated change not applied) above
T23 sequence (P10613 whole entry, looked up, stated change not applied): as above

As for `C[C@@H](c1ncncc1F)[C@](O)(Cn1cncn1)c1ccc(F)cc1F` [Voriconazole, voriconazole], the remaining activity at 4 µM at CaCYP51 R467K is 0.52 ± 0.18%; at CaCYP51 V456I, 0.79 ± 0.07%; on CaCYP51 D278N, 1.34 ± 0.05%; at CaCYP51 G307S+G450E it was 0.41 ± 0.1%; at CaCYP51 Wild type, 0.11 ± 0.01%; on CaCYP51 V488I, 0.13 ± 0.08%. In addition, the remaining activity at 4 µM was found to be 4.79 ± 0.11% at CaCYP51 D278N+G464S; 6.15 ± 0.66% at CaCYP51 S279F; 0.56 ± 0.12% on CaCYP51 F449Y; 0.92 ± 0.05% on CaCYP51 I471T; 0.37 ± 0.11% at CaCYP51 F145L; 0.41 ± 0.04% at CaCYP51 G307S. Moreover, the remaining activity at 4 µM at CaCYP51 G448E is 1.89 ± 0.61%; on CaCYP51 G464S, 0.1 ± 0.01%; on CaCYP51 Y257H it was 0.63 ± 0.27%; at CaCYP51 Y132H+K143R it was 39.6 ± 8.63%; on CaCYP51 K143R it was 3.12 ± 0.27%; on CaCYP51 G450E it was 3.5 ± 0.17%. In addition, the remaining activity at 4 µM on CaCYP51 Y118A was found to be 0.28 ± 0.04%; at CaCYP51 Q474K it was 0.34 ± 0.04%; at CaCYP51 S405F, 1.94 ± 0.12%; at CaCYP51 Y132F, 1.09 ± 0.05%; at CaCYP51 Y447H, 2.07 ± 1.04%; at CaCYP51 P230L it was 0.13 ± 0.12%.
